Measured values published in PMC11949107, “Polyunsaturated fatty acids and their endocannabinoid-related metabolites activity at human TRPV1 and TRPA1 ion channels expressed in HEK-293 cells” (PeerJ, 2025).
Values joined by “and” are separate entries in the source; they are usually repeats but may differ in a detail not shown here. Identical values can stand only once.

Tests used:
HEK-293 EV cells = test: Calcium 5 dye [Ca]i assay in HEK-293 empty vector (EV) cells; type: cell-based, human
Procedure: (§1) The cells were incubated in a 5% CO2 humidified atmosphere at 37 °C. Upon reaching approximately 90% confluence in 75 cm^2 flasks, they were trypsinized and transferred to poly-D-lysine coated 96-well plates (Corning, Castle Hill, NSW, Australia) in L-15 medium supplemented with 1% FBS, 100 U penicillin and 100 µg streptomycin ml^−1 (1% P/S), and 15 mM glucose (80 µL volume per well). After an overnight incubation (maximum of 16 h) in humidified room air at 37 °C, TRPV1 and TRPA1 receptor expression was induced 4 h before experimentation by adding to each well 10 µL tetracycline solution to a final concentration of 1 µg ml^−1.
Intracellular calcium [Ca]i levels were assessed using the calcium 5 kit from Molecular Devices (# R8186, Sunnyvale, CA, USA) on a FlexStation 3 Microplate Reader (Molecular Devices, Sunnyvale, CA, USA). […] 90 µL of the dye were loaded into each well of the plate and incubated for 1 h before reading in the FlexStation 3 at 37 °C. […] After 1 min of baseline recording, 20 µL of the drug, dissolved in HBSS with 1% dimethyl sulfoxide (DMSO) (cat # D2650; Sigma-Aldrich, Melbourne, Australia) was added (final DMSO concentration was 0.1% in well).
(§2) The response to agonists was expressed as a percentage change from the average baseline measurement taken for 60s before adding drug. Changes in fluorescence resulting from the addition of solvent were subtracted before normalization to baseline. Concentration–response curves (CRC), Emax and EC50 values were determined using a three-parameter logistic equation (GraphPad Prism, San Diego, CA, USA). […] Potencies were expressed as pEC50, which is the negative log of EC50 in moles per litre (Molar). Where appropriate, unpaired Student’s t-test were used to compare the responses of individual compounds in different conditions, while a one-way ANOVA followed by Dunnett’s multiple comparisons test was used to assess potential differences in responses elicited by a range of compounds. P < 0.05 was considered statistically significant.

human TRPA1 = biological target: T1, human TRPA1 (Homo sapiens, UniProt O75762); test: Calcium 5 dye [Ca]i assay in HEK-293 Flp-In T-REx cells expressing TRPA1 (agonist response); type: cell-based; details: for Elevation of [Ca]i in HEK-293 TRPA1 cells compared with HEK-293 EV cells: 10 µM (cinnamaldehyde 300 µM)
T1 construct: Life Technologies (cells); host or cells: Flp-In T-REx HEK-293
Procedure: as §1
(§3) Intracellular calcium [Ca]i levels were assessed using the calcium 5 kit from Molecular Devices (# R8186, Sunnyvale, CA, USA) on a FlexStation 3 Microplate Reader (Molecular Devices, Sunnyvale, CA, USA). […] Probenecid (cat # 50027; Biotium) which helps to prevent expulsion of calcium indicator from the cells was added to a final concentration of 1.25 mM. 90 µL of the dye were loaded into each well of the plate and incubated for 1 h before reading in the FlexStation 3 at 37 °C. Fluorescence was recorded every 2 s (λ excitation = 485 nm, λ emission = 525 nm) for 5 min. After 1 min of baseline recording, 20 µL of the drug, dissolved in HBSS with 1% dimethyl sulfoxide (DMSO) (cat # D2650; Sigma-Aldrich, Melbourne, Australia) was added (final DMSO concentration was 0.1% in well).
as §2

human TRPV1 = biological target: T2, human TRPV1 (Homo sapiens, UniProt Q8NER1); test: Calcium 5 dye [Ca]i assay in HEK-293 Flp-In T-REx cells expressing TRPV1 (agonist response); type: cell-based; details: for Change in Ca5 fluorescence, individual experiments (CRC raw data): TRPV1 cells
T2 construct: Life Technologies (cells); host or cells: Flp-In T-REx HEK-293
Procedure: as §1, §3, §2

T2 sequence (Q8NER1 whole entry): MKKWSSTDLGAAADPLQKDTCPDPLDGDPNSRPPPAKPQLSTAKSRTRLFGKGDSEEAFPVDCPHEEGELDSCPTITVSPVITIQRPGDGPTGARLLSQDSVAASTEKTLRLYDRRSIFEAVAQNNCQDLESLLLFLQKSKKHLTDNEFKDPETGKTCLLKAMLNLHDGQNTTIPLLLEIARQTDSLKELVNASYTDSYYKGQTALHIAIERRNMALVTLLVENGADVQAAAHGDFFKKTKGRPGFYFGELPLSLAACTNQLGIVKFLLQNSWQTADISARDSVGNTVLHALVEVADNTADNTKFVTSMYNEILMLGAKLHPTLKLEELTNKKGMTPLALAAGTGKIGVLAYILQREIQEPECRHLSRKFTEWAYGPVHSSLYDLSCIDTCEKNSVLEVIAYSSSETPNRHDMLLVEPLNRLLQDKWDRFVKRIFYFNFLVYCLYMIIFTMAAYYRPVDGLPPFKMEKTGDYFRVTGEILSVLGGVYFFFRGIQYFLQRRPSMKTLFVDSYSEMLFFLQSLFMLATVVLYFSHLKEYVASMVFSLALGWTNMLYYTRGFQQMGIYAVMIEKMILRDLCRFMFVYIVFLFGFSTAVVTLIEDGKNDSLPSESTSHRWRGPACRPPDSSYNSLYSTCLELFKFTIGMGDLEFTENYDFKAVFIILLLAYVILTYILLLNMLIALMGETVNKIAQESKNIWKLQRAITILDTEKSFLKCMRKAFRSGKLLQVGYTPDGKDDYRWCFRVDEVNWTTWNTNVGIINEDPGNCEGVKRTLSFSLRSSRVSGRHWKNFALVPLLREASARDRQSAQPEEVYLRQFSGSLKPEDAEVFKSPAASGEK
T1 sequence (O75762 whole entry): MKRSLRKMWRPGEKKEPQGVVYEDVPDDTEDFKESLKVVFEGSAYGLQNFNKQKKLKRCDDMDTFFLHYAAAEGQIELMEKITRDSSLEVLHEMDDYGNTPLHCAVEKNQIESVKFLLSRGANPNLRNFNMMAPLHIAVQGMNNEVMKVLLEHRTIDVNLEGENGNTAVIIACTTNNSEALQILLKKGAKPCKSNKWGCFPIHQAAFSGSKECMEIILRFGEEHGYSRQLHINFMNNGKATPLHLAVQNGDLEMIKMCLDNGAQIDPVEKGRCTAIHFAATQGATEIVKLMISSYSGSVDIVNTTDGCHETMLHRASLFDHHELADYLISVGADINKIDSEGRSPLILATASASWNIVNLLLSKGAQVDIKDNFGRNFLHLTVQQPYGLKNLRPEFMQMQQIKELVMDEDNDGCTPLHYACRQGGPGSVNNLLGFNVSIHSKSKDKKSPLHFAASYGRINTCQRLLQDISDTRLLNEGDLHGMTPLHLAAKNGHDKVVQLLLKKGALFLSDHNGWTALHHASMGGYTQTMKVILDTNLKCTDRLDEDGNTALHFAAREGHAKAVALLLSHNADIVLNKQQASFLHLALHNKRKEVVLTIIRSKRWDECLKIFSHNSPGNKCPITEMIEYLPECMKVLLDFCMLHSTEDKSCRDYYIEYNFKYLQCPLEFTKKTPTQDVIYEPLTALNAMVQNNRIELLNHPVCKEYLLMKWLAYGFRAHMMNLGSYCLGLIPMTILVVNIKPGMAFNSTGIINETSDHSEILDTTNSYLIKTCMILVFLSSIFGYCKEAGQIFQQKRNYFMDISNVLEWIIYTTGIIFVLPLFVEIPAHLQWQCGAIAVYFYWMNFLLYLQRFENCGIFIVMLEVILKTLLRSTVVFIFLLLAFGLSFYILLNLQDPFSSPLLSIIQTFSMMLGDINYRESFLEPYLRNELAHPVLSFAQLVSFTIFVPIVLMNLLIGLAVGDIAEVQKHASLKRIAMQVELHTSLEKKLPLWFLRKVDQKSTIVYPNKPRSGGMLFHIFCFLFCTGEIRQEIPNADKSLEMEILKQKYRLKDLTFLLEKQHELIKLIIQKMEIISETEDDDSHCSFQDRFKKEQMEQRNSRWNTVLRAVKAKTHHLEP

CCCCC/C=C\C/C=C\C/C=C\C/C=C\CCCCOC(CO)CO [2-AG ether, 2-arachidonoylglycerol ether]
Change of Ca5 fluorescence, Mean ± SEM, EV (10 µM) (HEK-293 EV cells; 10 µM, HEK-293 EV cells, percentage of predrug baseline): 8 ± 2% | Elevation of [Ca]i in HEK-293 TRPA1 cells compared with HEK-293 EV cells (human TRPA1): did not produce a change | Change of Ca5 fluorescence, Mean ± SEM, TRPA1 (10 µM) (human TRPA1; 10 µM, HEK-293 TRPA1 cells, percentage of predrug baseline): 91 ± 40% | TRPA1 activation at the highest concentration tested (human TRPA1; 30 µM): activated TRPA1 | TRPA1 response compared with the highest concentration of cinnamaldehyde (300 µM) (human TRPA1; 30 µM): significantly smaller | TRPA1 response, Mean± SEM (N) (human TRPA1; 30 µM, one-way ANOVA comparison with cinnamaldehyde 300 µM): 223 ± 60 | [Ca]i response (change in fluorescence), individual replicates (human TRPA1; concentration -4.52288 (log), sheet Figure 3(E)): 16.8824 and 397.614 and 5.373 and 104.863 and 520.454 and 293.014 | [Ca]i response (change in fluorescence), individual replicates (human TRPA1; concentration -5 (log), sheet Figure 3(E)): 6.439 and 205.99 and 4.156 and 6.3216 and 170.328 and 155.005 | [Ca]i response (change in fluorescence), individual replicates (human TRPA1; concentration -5.52288 (log), sheet Figure 3(E)): 2.263 and 3.295 and 6.759 and 5.886 and 11.1841 and 49.3437 | [Ca]i response (change in fluorescence), individual replicates (human TRPA1; concentration -6 (log), sheet Figure 3(E)): 11.4488 and 1.879 and 1.228 and 4.253 and 4.557 and 3.684 | [Ca]i response (change in fluorescence), individual replicates (human TRPA1; concentration -6.52288 (log), sheet Figure 3(E)): 9.48 and 8.5131 and 4.1 and 4.971 and 4.357 and 3.125 | [Ca]i response (change in fluorescence), individual replicates (human TRPA1; concentration -7 (log), sheet Figure 3(E)): 0.2809 and 4.873 and 5.959 and 5.37 and 6.745 and 2.857 | Emax ± SEM % TRPA1 (30 µM) (human TRPA1; highest tested concentration (30 µM) or derived from concentration-response curves (cinnamaldehyde)): 223 ± 87% | Elevation of [Ca]i in HEK-293 TRPV1 cells compared with HEK-293 EV cells (human TRPV1; 10 µM): did not produce a notable change | Change of Ca5 fluorescence, Mean ± SEM, TRPV1 (10 µM) (human TRPV1; 10 µM, HEK-293 TRPV1 cells, percentage of predrug baseline): 39 ± 24% | TRPV1 response, Mean± SEM (N) (human TRPV1; 30 µM, one-way ANOVA comparison with capsaicin 10 µM): 63± 56 | Emax ± SEM % TRPV1 (30 µM) (human TRPV1; highest tested concentration (30 µM) or derived from concentration-response curves (DHEA, AEA, NADA, capsaicin)): 63 ± 23% | Change in Ca5 fluorescence, individual experiments (CRC raw data) (human TRPV1; log concentration -4.52288 (M)): 153.653 and 87.759 and 41.6511 and 12.8054 and 5.8133 and 75.505 | Change in Ca5 fluorescence, individual experiments (CRC raw data) (human TRPV1; log concentration -5 (M)): 155.318 and 30.8581 and 23.9661 and 3.174 and 0.3103 and 20.3939 | Change in Ca5 fluorescence, individual experiments (CRC raw data) (human TRPV1; log concentration -5.52288 (M)): 16.5791 and 3.033 and 7.578 and 1.888 and 0.6433 and 11.7313 | Change in Ca5 fluorescence, individual experiments (CRC raw data) (human TRPV1; log concentration -6 (M)): 7.918 and 3.6522 and 9.605 and 2.557 and 2.906 and 1.314 | Change in Ca5 fluorescence, individual experiments (CRC raw data) (human TRPV1; log concentration -6.52288 (M)): 3.121 and 1.724 and 12.4457 and 2.326 and 0.7415 and 2.165 | Change in Ca5 fluorescence, individual experiments (CRC raw data) (human TRPV1; log concentration -7 (M)): 2.256 and 4.13 and 8.499 and 1.026 and 2.717 and 1.813

O=C/C=C/c1ccccc1 [Cinnamaldehyde, reference compound]
Change of Ca5 fluorescence, Mean ± SEM, EV (HEK-293 EV cells; 300 µM): 9 ± 6% | Elevation of [Ca]i in HEK-293 TRPA1 cells compared with HEK-293 EV cells (human TRPA1): significantly greater | Emax at 30 µM (human TRPA1; HEK293, read-out: Emax ± SEM % TRPA1 (30 µM)): 503 ± 23% | EC50 (human TRPA1; HEK-293 TRPA1 cells, EC50 in molar, read-out: pEC50 ± SEM TRPA1 (converted)): 39.8 µM | [Ca]i response (change in fluorescence), individual replicates (human TRPA1; concentration -3 (log), sheet Figure 3(E), listed as CA): 406.777 and 372.997 and 396.442 and 391.125 and 560.24 and 475.841 and 620.741 and 568.711 and 690.623 and 560.219 and 348.734 | [Ca]i response (change in fluorescence), individual replicates (human TRPA1; concentration -3.52288 (log), sheet Figure 3(E), listed as CA): 399.171 and 292.37 and 420 and 326.195 and 503.571 and 407.047 and 570.074 and 544.405 and 658.472 and 579.18 and 509.178 and 443.895 and 251.795 | [Ca]i response (change in fluorescence), individual replicates (human TRPA1; concentration -4 (log), sheet Figure 3(E), listed as CA): 465.941 and 242.855 and 408.124 and 299.959 and 422.86 and 556.178 and 443.235 and 598.589 and 512.677 and 412.651 and 386.358 and 8.272 | [Ca]i response (change in fluorescence), individual replicates (human TRPA1; concentration -4.52288 (log), sheet Figure 4, listed as CA): 54.0853 and 24.6638 and 241.325 | [Ca]i response (change in fluorescence), individual replicates (human TRPA1; concentration -6 (log), sheet Figure 3(E), listed as CA): 0.7258 and 2.113 and 6.067 and 2.682 and 1.675 and 5.148 and 1.916 and 4.62 and 6.922 and 6.788 and 9.2435 | [Ca]i response (change in fluorescence), individual replicates (human TRPA1; concentration -6.52288 (log), sheet Figure 3(E), listed as CA): 2.403 and 2.775 and 5.3494 and 3.66 and 4.992 and 6.537 and 3.841 and 13.1494 and 4.894 and 10.2884 and 14.1967 and 10.211 and 1.152 and 9.578 | TRPA1 response, Mean± SEM (N) (human TRPA1; highest concentration of cinnamaldehyde (300 µM)): 461 ± 60 (14)
